From patent publication US12172965B2, “Drug conjugate comprising quinoline derivatives” (UNIVERSITE PARIS-SACLAY, priority 2018, dated 2024)
pIC50: −log10 of the molar value. Like-named read-outs stand apart in the source and are kept apart here. Non-standard residues stand in square brackets, D forms with d. Residues, ends and D or L forms follow the SMILES beside them. *: point of attachment. Dolaproine = CO[C@@H]([C@@H]1CCCN1)[C@@H](C)C(=O)O; Dil = CC[C@H](C)[C@H](NC)[C@@H](CC(=O)O)OC; X1 = C[C@@H](N*)[C@@H](O)c1ccccc1; NMeV = CN[C@H](C(=O)O)C(C)C

How the values were obtained:
cell line HCT116 = conditions: molecules 4f/4j and 4g/4k of Alami et al. J. Med. Chem. 2019; cited from earlier work
[1] = tested on: Mia-Paca-2 (pancreatic tumour); test: Antiproliferative activity (IC50), CellTiter Glo, Mia-Paca-2; assay type: cell-based
From the text: (§1) The IC50 (as per accepted terminology) activities of the compounds according to the invention 4-((3-amino-4-methoxyphenyl)(methyl)amino) quinoline-2-carbonitrile (ICQN-1); 5-(5-((2-cyanoquinolin-4-yl)(methyl)amino)-2-methoxyphenyl)-N-hydroxypent-4-ynamide (ICQN-2); and (E)-3-(5-((2-cyanoquinolin-4-yl)(methyl)amino)-2-methoxyphenyl)-N-hydroxyacrylamide (ICQN-3) were compared with compounds of the prior art and with a commercial and clinical reference compound, in particular MMAE (monomethylauristatin E). The IC50 activities were measured on various different cancer cell lines HCT116 (colorectal tumour), A549 (non-small cell lung cancer), NCI-N87 (gastric tumour), Mia-Paca-2 (pancreatic tumour), K562R (chronic myeloid leukemia), SKOV3 (ovarian tumour), SKBr3 (breast tumour, Her2 overexpression), MCF7 (breast tumour) and MDA-MB231 (breast tumour).
(§2) The cancer cell lines were obtained from the American Culture Collection (ATCC, Rockville, MD) or from the German collection of microorganisms and cell cultures of the Leibniz Institute (DSMZ, Braunschweig-Germany) or from the European collection of cell cultures (ECACC, England). The cancer cell lines were cultured according to the supplier's instructions.
(§3) The A549 lung carcinoma cells, K562R myeloid leukemia cells, and the NCI-N87 gastric carcinoma cells were cultured in Gibco Roswell Park Memorial Institute (RPMI) 1640 medium supplemented with 10% foetal calf serum (FCS) and 1% glutamine. The Mia-Paca2 carcinoma cells were cultured in Gibco Dulbecco's Modified Eagle Medium (DMEM) supplemented with 10% foetal calf serum (FCS) and 1% glutamine.
(§4) The cells were counted using a Vi-cell XR (Beckman Coulter) and the cell viability was assessed by using 0.25% trypan blue dye exclusion assay. The cells were tested for the presence of mycoplasmas prior to the experiments with the Mycoplasma PCR detection kit (Applied Biological Materials Inc., Canada) according to the manufacturer's instructions, and only mycoplasma-free cells were used for the study. The cell lines were maintained at 37° C. in a humidified atmosphere containing 5% CO2.
(§5) After 24 hours of culturing, the cells were treated with the tested compounds at 10 different final concentrations. Each concentration was obtained from serial dilutions in culture medium starting from the stock solution. The control cells were treated with the carrier. The experiments were carried out in triplicate.
(§6) The measurements were performed after 72 hours of treatment using the CellTiter Glo assay (Promega) which makes it possible to measure through bioluminescence (quantification of adenosine triphosphate—ATP) the number of living cells, by using a PolarStar Omega microplate reader (BMG-Labtech).
(§7) The dose-response curves were plotted with the Graph Prism software application and the IC50 values were calculated using the Graph Prism software based on polynomial curves (four or five parameter logistic equations).

MCF7 (breast tumour) = test: Antiproliferative activity (IC50), CellTiter Glo, MCF7; assay type: cell-based; conditions: unconjugated; for pIC50: free, 72 hours of treatment, read-out: MCF7 CI50
From the text: as §1, §2
(§8) The breast adenocarcinoma cells MDA-MB231 and MCF7 were cultured in Gibco RPMI 1640 culture medium supplemented with 10% foetal calf serum (FCS) and 1% glutamine.
as §4, §5, §6, §7

[2] = tested on: MDA-MB231 (breast tumour); test: Antiproliferative activity (IC50), CellTiter Glo, MDA-MB231; assay type: cell-based; conditions: unconjugated; for pIC50: free, 72 hours of treatment, read-out: MDA-MB231 CI50
From the text: as §1, §2, §8, §4, §5, §6, §7

NCI-N87 (gastric tumour) = test: Antiproliferative activity (IC50), CellTiter Glo, NCI-N87; assay type: cell-based
From the text: as §1, §2, §3, §4, §5, §6, §7

[3] = tested on: K562R (chronic myeloid leukemia); test: Antiproliferative activity (IC50), CellTiter Glo, K562R; assay type: cell-based
From the text: as §1, §2, §3, §4, §5, §6, §7
The K562R (chronic myeloid leukemia) cells have an MDR profile that allows them to be resistant to several chemotherapeutic compounds including the reference compound MMAE.

SKOV3 (ovarian tumour) = test: Antiproliferative activity (IC50), CellTiter Glo, SKOV3; assay type: cell-based, human
From the text: as §1, §2
(§9) The HCT-116 human colorectal carcinoma, SK-BR3 breast carcinoma, and SK-OV-3 ovarian carcinoma cells were cultured in Gibco McCoy's 5A medium supplemented with 10% foetal calf serum (FCS) and 1% glutamine.
as §4, §5, §6, §7

[4] = tested on: SKBr3 (breast tumour, Her2 overexpression); test: Antiproliferative activity (IC50), CellTiter Glo, SKBr3; assay type: cell-based, human
From the text: as §1, §2, §9, §4, §5, §6, §7

[5] = tested on: A549 (non-small cell lung cancer); test: Antiproliferative activity (IC50), CellTiter Glo, A549; assay type: cell-based
From the text: as §1, §2, §3, §4, §5, §6, §7

[6] = tested on: HCT116 (colorectal tumour); test: Antiproliferative activity (IC50), CellTiter Glo, HCT116; assay type: cell-based, human
From the text: as §1, §2, §9, §4, §5, §6, §7

[7] = Homo sapiens, MIA PaCa-2, free, unconjugated, 72 hours of treatment, read-out: Mia-Paca-2 IC50
[8] = Homo sapiens, NCI-N87, free, unconjugated, 72 hours of treatment, read-out: NIC-N87 IC50
[9] = Homo sapiens, K-562R, free, unconjugated, 72 hours of treatment, read-out: K562R IC50
[10] = Homo sapiens, SK-OV-3, free, unconjugated, 72 hours of treatment, read-out: SKOV3 IC50
[11] = Homo sapiens, SK-BR-3, free, unconjugated, 72 hours of treatment, read-out: SKBr3 IC50
[12] = ratio versus MMAE, unconjugated
[13] = resistant cancer cells, MDR profile
[14] = ratio versus prior-art payload ICQO-1

Compound: C=C(c1ccc2c(c1)c1ccccc1n2C)c1cc(C)nc2ccccc12
- pIC50 (cell line HCT116): 8.70

Compound: COc1ccc(N(C)c2cc(C#N)nc3ccccc23)cc1/C=C/C(=O)NO [ICQN-3, (E)-3-(5-((2-cyanoquinolin-4-yl)(methyl)amino)-2-methoxyphenyl)-N-hydroxyacrylamide]
- pIC50 [1, 7]: 9.03
- pIC50 (MCF7 (breast tumour); Homo sapiens, MCF7): 9.11
- pIC50 ([2]; Homo sapiens, MDA-MB-231): 9.36
- pIC50 (NCI-N87 (gastric tumour); [8]): 10.00
- pIC50 [3, 9]: 9.25
- pIC50 (SKOV3 (ovarian tumour); [10]): 8.58
- pIC50 [4, 11]: 8.75

Compound: COc1ccc(N(C)c2cc(C#N)nc3ccccc23)cc1N [ICQN-1, 4-((3-amino-4-methoxyphenyl)(methyl)amino) quinoline-2-carbonitrile]
- pIC50 ([1]; Homo sapiens, MIA PaCa-2, comparative data 13b / ICQN-1, unit inferred, read-out: Mia-Paca2 (antiproliferative activity, Table 3)): 9.31
- pIC50 [1, 7]: 9.31
- IC50 ([1]; Homo sapiens, MIA PaCa-2, nM given only in VB118 cells, read-out: Mia-Paca-2 (antiproliferative activity, Table 6)): 0.49 nM
- IC50 Ratio ICQN1/MMAE, Mia-Paca-2 [1, 12]: 6
- Ratio of activity 13b vs ICQN-1, Mia-Paca2 ([1]; ratio versus compound 13b): 2
- pIC50 (MCF7 (breast tumour); Homo sapiens, MCF7): 9.77
- IC50 Ratio ICQN1/MMAE, MCF7 (MCF7 (breast tumour); ratio versus MMAE): 3
- pIC50 ([2]; Homo sapiens, MDA-MB-231): 9.47
- IC50 Ratio ICQN1/MMAE, MDA-MB231 ([2]; ratio versus MMAE): 4
- pIC50 (NCI-N87 (gastric tumour); Homo sapiens, NCI-N87, comparative data 13b / ICQN-1, unit inferred, read-out: NCI-N87 (antiproliferative activity, Table 3)): 9.52
- pIC50 (NCI-N87 (gastric tumour); [8]): 9.52
- IC50 (NCI-N87 (gastric tumour); Homo sapiens, NCI-N87, nM given only in VB118 cells, read-out: NCI-N87 (antiproliferative activity, Table 6)): 0.3 nM
- IC50 Ratio ICQN1/MMAE, NCI-N87 (NCI-N87 (gastric tumour); [12]): 22
- Ratio of activity 13b vs ICQN-1, NCI-N87 (NCI-N87 (gastric tumour); ratio versus compound 13b): 15
- pIC50 ([3]; Homo sapiens, K-562R, comparative data 13b / ICQN-1, unit inferred, read-out: K562R (antiproliferative activity, Table 3)): 9.33
- pIC50 [3, 9]: 9.33
- IC50 ([3]; Homo sapiens, K-562R, nM given only in VB118 cells, read-out: K562R (antiproliferative activity, Table 6)): 0.47 nM
- pIC50 ([3]; Homo sapiens, K-562R, resistant cancer cells, MDR profile, read-out: K562R (PgP+) IC50): 9.33
- Ratio of activity 13b vs ICQN-1, K562R ([3]; ratio versus compound 13b): 8
- Ratio vs ICQO-1, K562R (PgP+) [3, 13]: 4.2
- Ratio vs MMAE, K562R (PgP+) [3, 13]: 74
- pIC50 (SKOV3 (ovarian tumour); Homo sapiens, SK-OV-3, comparative data 13b / ICQN-1, unit inferred, read-out: SKOV3 (antiproliferative activity, Table 3)): 9.36
- pIC50 (SKOV3 (ovarian tumour); [10]): 9.36
- IC50 (SKOV3 (ovarian tumour); Homo sapiens, SK-OV-3, nM given only in VB118 cells, read-out: SKOV-3 (antiproliferative activity, Table 6)): 0.44 nM
- Ratio of activity 13b vs ICQN-1, SKOV3 (SKOV3 (ovarian tumour); ratio versus compound 13b): 3
- IC50 ratio ICQN-1 vs ICQO-1, SKOV-3 (SKOV3 (ovarian tumour); [14]): 3
- pIC50 ([5]; Homo sapiens, A549, comparative data 13b / ICQN-1, unit inferred, read-out: A549 (antiproliferative activity, Table 3)): 9.14
- pIC50 ([5]; Homo sapiens, A549, free, unconjugated, 72 hours of treatment, read-out: A549 IC50): 9.14
- Potency ratio of ICQN-1 vs MMAE (MMAE IC50 / ICQN-1 IC50), A549 [5, 12]: 6
- Ratio of activity 13b vs ICQN-1, A549 ([5]; ratio versus compound 13b): 1
- pIC50 ([6]; Homo sapiens, HCT-116, comparative data 13b / ICQN-1, unit inferred, read-out: HCT116 (antiproliferative activity, Table 3)): 9.64
- pIC50 ([6]; Homo sapiens, HCT-116, free, unconjugated, 72 hours of treatment, read-out: HCT116 IC50): 9.64
- IC50 ratio MMAE/ICQN-1 (fold potency of ICQN-1 over MMAE), HCT116 [6, 12]: 7
- Ratio of activity 13b vs ICQN-1, HCT116 ([6]; ratio versus compound 13b): ~10
- IC50 ratio ICQN-1 vs ICQO-1, HCT-116 [6, 14]: 44
- pIC50 ([4]; Homo sapiens, SK-BR-3, comparative data 13b / ICQN-1, unit inferred, read-out: SKBr3 (antiproliferative activity, Table 3)): 9.44
- pIC50 [4, 11]: 9.44
- IC50 ([4]; Homo sapiens, SK-BR-3, nM given only in VB118 cells, read-out: SKBR3 (antiproliferative activity, Table 6)): 0.36 nM
- Ratio of activity 13b vs ICQN-1, SKBr3 ([4]; ratio versus compound 13b): 6

Compound: CC[C@H](C)[C@@H]([C@@H](CC(=O)N1CCC[C@H]1[C@H](OC)[C@@H](C)C(=O)N[C@H](C)[C@@H](O)c1ccccc1)OC)N(C)C(=O)[C@@H](NC(=O)[C@@H](NC)C(C)C)C(C)C [MMAE, monomethylauristatin E, reference compound] (H-[NMeV]V[Dil][Dolaproine]-X1)
- pIC50 ([1]; free, unconjugated, 72 hours of treatment, read-out: Mia-Paca-2 IC50): 8.52
- pIC50 (MCF7 (breast tumour)): 9.24
- pIC50 [2]: 8.90
- pIC50 (NCI-N87 (gastric tumour); free, unconjugated, 72 hours of treatment, read-out: NIC-N87 IC50): 8.18
- pIC50 ([3]; free, unconjugated, 72 hours of treatment, read-out: K562R IC50): 7.71
- pIC50 ([3]; resistant cancer cells, MDR profile, read-out: K562R (PgP+) IC50): 7.46
- pIC50 (SKOV3 (ovarian tumour); free, unconjugated, 72 hours of treatment, read-out: SKOV3 IC50): 10.10
- pIC50 ([5]; free, unconjugated, 72 hours of treatment, read-out: A549 IC50): 8.39
- pIC50 ([6]; free, unconjugated, 72 hours of treatment, read-out: HCT116 IC50): 8.82
- pIC50 ([4]; free, unconjugated, 72 hours of treatment, read-out: SKBr3 IC50): 10.22

Compound: C=C(c1ccc2c(c1)c1ccccc1n2C)c1cc(C#N)nc2ccccc12
- pIC50 (cell line HCT116): 7.92
